Results on five molecules are retold here after patent publication US20120020958A1, “FIBCD1 FOR THE PREVENTION AND TREATMENT OF DISEASES” (Dansk Universitet, priority 2008, published 2012).

One assay has as its system mice. The following applies: cited from earlier work.
Assay [1] concerns spleen cells isolated from the ragweed-immunized mice. The following applies: ragweed/chitin stimulation, 3 days; cited from earlier work.
A further assay has as its system allergic mouse model. The following applies: oral administration; cited from earlier work.
Assay [2] has as its target T1, FIBCD1 (the FReD of FIBCD1) (Homo sapiens, UniProt Q8N539).
T1 construct: 20 μg of the FIBCD1 (the FReD of FIBCD1)
T1 sequence (Q8N539 235-458 limits assumed): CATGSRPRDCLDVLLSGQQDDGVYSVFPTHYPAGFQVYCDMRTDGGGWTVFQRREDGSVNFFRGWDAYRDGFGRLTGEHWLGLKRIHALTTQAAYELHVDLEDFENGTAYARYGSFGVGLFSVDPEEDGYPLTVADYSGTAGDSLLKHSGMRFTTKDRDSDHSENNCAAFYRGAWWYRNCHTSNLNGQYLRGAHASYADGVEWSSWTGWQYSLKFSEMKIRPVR
In words: Pull-down assay of FIBCD1 (FReD) with insoluble polysaccharides. The format is binding. The following applies: 20 μg FIBCD1 FReD, 2 mg insoluble substance. The method, then:
(B) Microtiterplates were coated with LTA, mannan, peptidoglycan or NAc-BSA and increasing concentrations of FIBCD1 was added. (C) Pull-down assays where 20 μg of the FIBCD1 (the FReD of FIBCD1) or as a positive control 20 μg of wheat germ agglutinin (WGA) was added to 2 mg insoluble chitin, cellulose, zymozane or beta-glucan. […] BSA was used as control. Pellet fractions were analyzed by SDS-PAGE and Coomassie blue staining.

The target in a further assay is T2, acetylated BSA (Bos taurus, UniProt P02769).
T2 construct: purchased Sigma
T2 sequence (P02769 25-607): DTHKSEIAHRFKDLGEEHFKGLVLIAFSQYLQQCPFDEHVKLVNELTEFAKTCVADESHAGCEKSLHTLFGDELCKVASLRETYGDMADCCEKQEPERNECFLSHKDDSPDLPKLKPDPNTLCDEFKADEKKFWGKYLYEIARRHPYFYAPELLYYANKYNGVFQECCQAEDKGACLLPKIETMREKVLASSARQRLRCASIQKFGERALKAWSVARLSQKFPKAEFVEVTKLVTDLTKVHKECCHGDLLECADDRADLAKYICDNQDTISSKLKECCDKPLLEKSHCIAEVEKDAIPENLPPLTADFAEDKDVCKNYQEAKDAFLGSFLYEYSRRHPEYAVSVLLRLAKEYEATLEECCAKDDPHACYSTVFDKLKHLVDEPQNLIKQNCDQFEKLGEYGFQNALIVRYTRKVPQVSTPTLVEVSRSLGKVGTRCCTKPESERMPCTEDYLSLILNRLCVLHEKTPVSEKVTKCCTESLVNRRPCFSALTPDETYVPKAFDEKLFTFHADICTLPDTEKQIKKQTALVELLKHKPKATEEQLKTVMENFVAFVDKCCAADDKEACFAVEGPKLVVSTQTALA
Description: Binding of mutated forms of the FReD of FIBCD1 to acetylated BSA (ELISA). The following applies: site directed mutagenesis of FIBCD1 FReD. The method, then:
Microtiter plates were coated with acetylated BSA or BSA and blocked with TBS/Tw before being incubated with FIBCD1 samples diluted in TBS/Tw (5 mM CaCl2). The FIBCD1 samples were added from 1 μg/ml in a twofold dilution series. The signal from binding of protein to BSA was subtracted from the signal from binding to acetylated BSA. The resulting normalized signals were then expressed as a percentage of the signal from FIBCD1FReD at 1 μg/ml, which was set at 100%. The experiment was repeated three times.
Generation of HEK293 and CHO cells expressing recombinant forms of FIBCD1 In order to generate cells expressing recombinant forms of FIBCD1, the Flp-In™ system (Invitrogen) was utilized. In this system the cDNA is integrated into a specific genomic site. Flp-In™ T-REx™ HEK293 cells or CHO Flp-In™ T-REx™ (Invitrogen) was used as host cells. HEK293 cells were cultured in Dulbecco's modified Eagle medium (DMEM; Invitrogen) and CHO cells in Hams F12 medium (Invitrogen) both containing penicillin (100 units/ml), streptomycin (100 μg/ml), 2 mM L-glutamine and 10% fetal bovine serum (Invitrogen). At approximately 50% confluency, cells were co-transfected (ratio 1:9) with the pSecTag/FRT/V5-His TOPO® TA or pcDNA/FRT/V5-His TOPO® TA containing the FIBCD1 construct and the pOG44 vector encoding Flp recombinase, using the jetPEI™ transfection kit (Polyplus-transfection SAS, Illkirch cedex, France). The recombinase mediates insertion of the expression vectors into the genomic integration site. Integration of the vectors confers hygromycin resistance. Thus, 48 hours after transfection the HEK293 and CHO cells were selected for stable integration of the FIBCD1 constructs with 150 μg/ml and 800 μg/ml hygromycin B (Invitrogen), respectively. Hygromycin resistant clones were obtained after two weeks of culture. At confluence cells were transferred to DMEM or Hams F12 medium without serum. Supernatants were harvested after 72 hours of expression and analyzed by SDS-PAGE and Western blotting. […]
In general terms: ELISA stands for enzyme-linked immunosorbent assay.

Take “AMCase: acidic mammalian chitinase, an endo-β-1,3... see b8: endo-β-1,4-N-acetylglucosaminidase”: in the assay on mice (pre-treatment with AMCase), the chitin-induced cell infiltration result is reported as “inhibited”.

As to chitin, in assay [1], the IFN-γ production result is recorded as “increase”, the IL-4 levels result is “significant decreases”, the IL-5 levels result was “significant decreases” and the IL-10 levels result is given as “significant decreases”. Besides, in the assay on allergic mouse model, the lung eosinophilia entry was “down-regulates” and the “serum IgE levels” value was “down-regulates”. Besides, in the assay with mice (instilled in the lung (or given intraperitoneally)), the “accumulation of IL-4 and IL-13 expressing cells including Th2 cells, eosinophils and basophils” value is “induced the accumulation”. The “binding of FIBCD1 in pull-down” value in assay [2] is reported as “detected”.

B1: H415G: single mutation form of the FReD of FIBCD1 (protein)
chain: ATGSRPRDCLDVLLSGQQDDGVYSVFPTHYPAGFQVYCDMRTDGGGWTVFQRREDGSVNFFRGWDAYRDGFGRLTGEHWLGLKRIHALTTQAAYELHVDLEDFENGTAYARYGSFGVGLFSVDPEEDGYPLTVADYSGTAGDSLLKHSGMRFTTKDRDSDHSENNCAAFYRGAWWYRNCGTSNLNGQYLRGAHASYADGVEWSSWTGWQYSLKFSEMKIRPVREDR
For the molecule B1, the “binding of mutated FIBCD1 to NAc-BSA” value with acetylated BSA is given as “completely arrogate”.

B2: W443S: single mutation form of the FReD of FIBCD1 (protein)
chain: ATGSRPRDCLDVLLSGQQDDGVYSVFPTHYPAGFQVYCDMRTDGGGWTVFQRREDGSVNFFRGWDAYRDGFGRLTGEHWLGLKRIHALTTQAAYELHVDLEDFENGTAYARYGSFGVGLFSVDPEEDGYPLTVADYSGTAGDSLLKHSGMRFTTKDRDSDHSENNCAAFYRGAWWYRNCHTSNLNGQYLRGAHASYADGVEWSSWTGSQYSLKFSEMKIRPVREDR
For the molecule B2, the “binding of mutated FIBCD1 to NAc-BSA” value with acetylated BSA was “partially arrogated”.

B3: A432V: single mutation form of the FReD of FIBCD1 (protein)
chain: ATGSRPRDCLDVLLSGQQDDGVYSVFPTHYPAGFQVYCDMRTDGGGWTVFQRREDGSVNFFRGWDAYRDGFGRLTGEHWLGLKRIHALTTQAAYELHVDLEDFENGTAYARYGSFGVGLFSVDPEEDGYPLTVADYSGTAGDSLLKHSGMRFTTKDRDSDHSENNCAAFYRGAWWYRNCHTSNLNGQYLRGAHASYVDGVEWSSWTGWQYSLKFSEMKIRPVREDR
Regarding B3, in the assay with acetylated BSA, the “binding of mutated FIBCD1 to NAc-BSA” value is “completely arrogate”.
